Test results as given in US3957811A, “Process for 3-(1-[arylmethyl]tetrazol-5-yl)penams” (Pfizer Inc., priority 1974, dated 1976).
Values after ≈ are worked out from the molar mass of the structure shown.

Tested on: Streptococcus pyogenes
Experiment: In vitro MIC, conventional two-fold serial dilution technique in Brain-Heart Infusion broth, vs. Strep. pyogenes
Format: cell-based
Conditions: Streptococcus pyogenes, read-out: MIC vs. Strep. pyogenes
Method: The antibacterial penam compounds, prepared from the products of the instant process invention, show activity against a wide variety of gram-positive and gram-negative bacteria. […] The broth is inoculated with the bacterial culture, and with the test antibiotic, and then it is incubated overnight. On the next day, the test is read visually. The minimum inhibitory concentration (MIC) is the lowest concentration of antibiotic which prevents turbidity, i.e., which prevents growth of the microorganism. In vitro activities of several of the penam compounds of the invention are presented later in this specification.
In vitro antibacterial activities for a number of compounds prepared by the procedure of Example 8 are presented below.
In Table II, the minimum inhibitory concentrations (MIC's) of compounds wherein R is hydrogen, against a strain of Streptococcus pyogenes are reported.

| SMILES | MIC |
| --- | --- |
| CC1(C)S[C@@H]2[C@H](NC(=O)C(N)c3cc(O)ccc3Br)C(=O)N2[C@H]1c1nnn[nH]1 (mixture of isomers) | < 0.1 µg/mL |
| CC1(C)S[C@@H]2[C@H](NC(=O)CSc3ccncc3)C(=O)N2[C@H]1c1nnn[nH]1 [2-(4-pyridylthio)acetyl] | < 0.1 µg/mL |
| CC1(C)S[C@@H]2[C@H](NC(=O)[C@H](N)c3ccc(O)cc3)C(=O)N2[C@H]1c1nnn[nH]1 [D-2-amino-2-(p-hydroxyphenyl)acetyl, 6-(D-2-amino-2-[p-hydroxyphenyl]acetamido)-2,2-dimethyl-3-(5-tetrazolyl)penam] | < 0.1 µg/mL |
| CC1(C)S[C@@H]2[C@H](NC(=O)Oc3ccccc3)C(=O)N2[C@H]1c1nnn[nH]1 [phenoxycarbonyl] | < 0.1 µg/mL |

Same assay, conditions: compounds wherein R is hydrogen; a strain of Streptococcus pyogenes; Brain-Heart Infusion broth, overnight; read-out: MIC vs. Strep. pyogenes

| SMILES | MIC |
| --- | --- |
| CC1(C)S[C@@H]2[C@H](NC(=O)[C@H](N)c3ccc(O)c(Cl)c3)C(=O)N2[C@H]1c1nnn[nH]1 | 0.1 µg/mL (≈ 0.236 µM) |
| CC1(C)S[C@@H]2[C@H](NC(=O)C(N)c3ccc(O)c(O)c3)C(=O)N2[C@H]1c1nnn[nH]1 (mixture of isomers) [DL-2-amino-2-(3,4-dihydroxyphenyl)acetyl] | < 0.1 µg/mL |
| CC1(C)S[C@@H]2[C@H](NC(=O)C(N)c3ccc(Cl)cc3)C(=O)N2[C@H]1c1nnn[nH]1 (mixture of isomers) [DL-2-amino-2-(p-chlorophenyl)acetyl] | < 0.1 µg/mL |
| CC1(C)S[C@@H]2[C@H](NC(=O)C3(N)CCCCC3)C(=O)N2[C@H]1c1nnn[nH]1 [1-aminocyclohexylcarbonyl] | 25 µg/mL (≈ 68.4 µM) |
| COc1cccc(OC)c1C(=O)N[C@@H]1C(=O)N2[C@@H]1SC(C)(C)[C@@H]2c1nnn[nH]1 [2,6-dimethoxybenzoyl] | < 0.2 µg/mL |
| CC1(C)S[C@@H]2[C@H](NC(=O)Cn3cnnn3)C(=O)N2[C@H]1c1nnn[nH]1 [2-(1-tetrazolyl)acetyl] | < 0.39 µg/mL |
| CCN=C(NCC)SCC(=O)N[C@@H]1C(=O)N2[C@@H]1SC(C)(C)[C@@H]2c1nnn[nH]1 [2-(N,N'-diethylamidinothio)acetyl] | < 0.1 µg/mL |
| CC1(C)S[C@@H]2[C@H](NC(=O)C(N=[N+]=[N-])c3ccccc3)C(=O)N2[C@H]1c1nnn[nH]1 (stereo partly shown) [2-azido-2-phenylacetyl] | < 0.1 µg/mL |
| CC1(C)S[C@@H]2[C@H](NC(=O)CBr)C(=O)N2[C@H]1c1nnn[nH]1 [2-bromoacetyl] | < 0.1 µg/mL |
| CC1(C)S[C@@H]2[C@H](NC(=O)CC#N)C(=O)N2[C@H]1c1nnn[nH]1 [2-cyanoacetyl] | 0.1 µg/mL (≈ 0.325 µM) |
| CC1(C)S[C@@H]2[C@H](NC(=O)COc3ccccc3)C(=O)N2[C@H]1c1nnn[nH]1 [2-phenoxyacetyl] | < 0.1 µg/mL |
| CC1(C)S[C@@H]2[C@H](NC(=O)Cc3ccccc3)C(=O)N2[C@H]1c1nnn[nH]1 [2-phenylacetyl, 6-(2-Phenylacetamido)-2,2-dimethyl-3-(5-tetrazolyl)penam] | < 0.1 µg/mL |
| CC1(C)S[C@@H]2[C@H](NC(=O)C=CC(N)=O)C(=O)N2[C@H]1c1nnn[nH]1 [3-(carbamoyl)acryloyl] | < 0.1 µg/mL |
| CC1(C)S[C@@H]2[C@H](NC(=O)[C@H](N)c3cccs3)C(=O)N2[C@H]1c1nnn[nH]1 [D-2-amino-2-(2-thienyl)acetyl] | 0.1 µg/mL (≈ 0.264 µM) |
| CC1(C)S[C@@H]2[C@H](NC(=O)[C@H](N)c3cccc(F)c3)C(=O)N2[C@H]1c1nnn[nH]1 [D-2-amino-2-(m-fluorophenyl)acetyl] | < 0.1 µg/mL |
| CC1(C)S[C@@H]2[C@H](NC(=O)[C@H](N)c3cccc(O)c3)C(=O)N2[C@H]1c1nnn[nH]1 [D-2-amino-2-(m-hydroxyphenyl)acetyl] | < 0.1 µg/mL |
| CC1(C)S[C@@H]2[C@H](NC(=O)[C@H](N)c3ccccc3)C(=O)N2[C@H]1c1nnn[nH]1 [D-2-amino-2-phenylacetyl] | < 0.1 µg/mL |
| CC(C)[C@@H](N)C(=O)N[C@@H]1C(=O)N2[C@@H]1SC(C)(C)[C@@H]2c1nnn[nH]1 [D-2-amino-3-methylbutyryl] | 0.2 µg/mL (≈ 0.589 µM) |
| CC1(C)S[C@@H]2[C@H](NC(=O)[C@H](N)Cc3ccccc3)C(=O)N2[C@H]1c1nnn[nH]1 [D-2-amino-3-phenylpropionyl] | 0.39 µg/mL (≈ 1.01 µM) |
| CC1(C)S[C@@H]2[C@H](NC(=O)[C@@H](N)c3ccc(O)cc3)C(=O)N2[C@H]1c1nnn[nH]1 [L-2-amino-2-(p-hydroxyphenyl)acetyl] | < 0.1 µg/mL |
| CC(=O)N[C@@H]1C(=O)N2[C@@H]1SC(C)(C)[C@@H]2c1nnn[nH]1 [acetyl] | < 0.1 µg/mL |
| CC1(C)S[C@@H]2[C@H](NC(=O)OCc3ccccc3)C(=O)N2[C@H]1c1nnn[nH]1 [benzyloxycarbonyl] | < 0.1 µg/mL |
| CCOC(=O)N[C@@H]1C(=O)N2[C@@H]1SC(C)(C)[C@@H]2c1nnn[nH]1 [ethoxycarbonyl] | < 0.1 µg/mL |
| CC1(C)S[C@@H]2[C@H](N)C(=O)N2[C@H]1c1nnn[nH]1 [hydrogen, 6-Amino-2,2-dimethyl-3-(5-tetrazolyl)penam] | < 0.1 µg/mL |
